Reference: patent US8883745B2, “C—glycolipids with enhanced Th-1 profile” (New York University, priority 2006, dated 2014)

Key:
Format in all cases: in vivo
[1] = system: IFN-γ; experiment: IFN-γ levels in sera upon i.v. glycolipid administration to C57BL/6 mice (ELISA); parameters: IFN-γ levels, test 1 / IFN-γ levels, test 2 / IFN-γ levels, average / IFN-γ levels, Total / IFN-γ (B6): unit not given here; conditions: for IFN-γ/IL-4 (B6): C57BL/6, ratio calculated from Tables 1-6; for IFN-γ levels, average / IFN-γ levels, test 1 / IFN-γ levels, test 2 / IFN-γ levels, Total: C57BL/6, serum; for IFN-γ levels, Total: total over hours 0-72
Method: (§1) Five- to six-week-old female C57BL/6 mice and BALB/c mice were purchased from Taconic. Each glycolipid was stored at 1 mg/ml in 100% DMSO. Mice were injected intravenously with 1 μg of each glyocolipid diluted in 200 μL sterile phosphate buffered saline (PBS). At indicated time points, sera were collected from each animal, and concentrations of IFN-γ, IL-4, and IL-12 in the sera were evaluated by enzyme-linked immunosorbent assay (ELISA). Serum concentrations of IFN-γ, IL-4, and IL-12 were evaluated using an ELISA kit (eBioscience, San Diego, Calif.). Briefly, 96 well flat-bottom ELISA plates (NUNC) were coated with capture antibody according to the manufacture's recommendation and incubated overnight at 4° C. The plates were washed with PBS+0.05% Tween 20 (PBS-T), then incubated with manufacturer provided blocking solution for 1 hr at room temperature to block non-specific binding sites. After washing with PBS-T, sera diluted 1:10 was added to the wells and incubated for 2 hrs at room temperature. Plates were then incubated at room temperature for 1 hr with biotintylated detection antibody, washed, incubated with avidin conjugated to horse radish peroxidase (HRP) for 30 min at room temperature, washed, and finally incubated with tetramethylbenzidine substrate solution in the dark for 10 minutes at room temperature. The antibodies, avidin-HRP, and substrate solution were all diluted according to the manufacture's recommendation. Reactions were stopped with 2.0N sulfuric acid and the cytokine concentration in each well was determined by comparing the absorbance at 450 nm in each well to known standards. The levels of Th1- and Th2-type cytokines were determined in two different genetic backgrounds, i.e., in C57BL/6 mice and BALB/c mice. The following compounds were administered: A=compound (A-1 trans-conformer), B=compound (A-2), C=compound (A-3), D=compound (A-4), E=compound (A-5), Z=control (PBS alone), CRONY=α-C-GalCer, KRN=α-GalCer, GCK109 (A-1 trans-conformer), GCK151 (A-1 cis-conformer), GCK152 (A-7). The levels of cytokines were measured at 0, 2, 6, 12, 24, 48, and 72 hours after the compound administration. The levels of Th1-type cytokines IFN-γ and IL-12 are summarized in FIGS. 2A-C and 3A-C, respectively. Table 7 provides IFN-γ/IL-4 and IL-12/IL-4 ratios for various compounds, which can be used as indicators of their ability to selectively stimulate Th1-type immune responses.

[2] = system: IL-12; experiment: IL-12 levels in sera upon i.v. glycolipid administration to C57BL/6 mice (ELISA); parameters: IL-12 levels, test 1 / IL-12 levels, test 2 / IL-12 levels, average / IL-12 levels, Total: unit not given here; conditions: for IL-12/IL-4 (B6): C57BL/6, ratio calculated from Tables 1-6; for IL-12 levels, average / IL-12 levels, test 1 / IL-12 levels, test 2 / IL-12 levels, Total: C57BL/6, serum; for IL-12 levels, Total: total over hours 0-72
Method: as §1

[3] = system: IL-4; experiment: IL-4 levels in sera upon i.v. glycolipid administration to BALB/c mice (ELISA); parameters: unit not given here; conditions: for IL-4 level, Total: total over hours 0-72
Method: as §1

[4] = system: IL-4; experiment: IL-4 levels in sera upon i.v. glycolipid administration to C57BL/6 mice (ELISA); parameters: unit not given here; conditions: for IL-4 level, Total: total over hours 0-72
Method: as §1

CCCCCCCCCCCCCCCCCC/C=C/CCCCCCCCC(=O)N[C@@H](/C=C/[C@H]1O[C@H](CO)[C@H](O)[C@H](O)[C@H]1O)[C@H](O)[C@H](O)CCCCCCCCCCCCCC [A-1]
IFN-γ/IL-4 (B6) [1]: 12
IFN-γ levels, average ([1]; hour 0): 31
IFN-γ levels, test 1 ([1]; hour 0): 31
IFN-γ levels, test 2 ([1]; hour 0): 31
IFN-γ levels, average ([1]; hour 2): 281
IFN-γ levels, test 1 ([1]; hour 2): 226
IFN-γ levels, test 2 ([1]; hour 2): 336
IFN-γ levels, average ([1]; hour 6): 1147.5
IFN-γ levels, test 1 ([1]; hour 6): 1172
IFN-γ levels, test 2 ([1]; hour 6): 1123
IFN-γ levels, average ([1]; hour 12): 4323
IFN-γ levels, test 1 ([1]; hour 12): 4093
IFN-γ levels, test 2 ([1]; hour 12): 4553
IFN-γ levels, average ([1]; hour 24): 11150
IFN-γ levels, test 1 ([1]; hour 24): 10000
IFN-γ levels, test 2 ([1]; hour 24): 12300
IFN-γ levels, average ([1]; hour 48): 400.5
IFN-γ levels, test 1 ([1]; hour 48): 366
IFN-γ levels, test 2 ([1]; hour 48): 435
IFN-γ levels, average ([1]; hour 72): 151
IFN-γ levels, test 1 ([1]; hour 72): 124
IFN-γ levels, test 2 ([1]; hour 72): 178
IFN-γ levels, Total [1]: 17485
IL-12/IL-4 (B6) [2]: 2.9
IL-12 levels, average ([2]; hour 0): 5
IL-12 levels, test 1 ([2]; hour 0): 5
IL-12 levels, test 2 ([2]; hour 0): 5
IL-12 levels, average ([2]; hour 2): 20
IL-12 levels, test 1 ([2]; hour 2): 40
IL-12 levels, test 2 ([2]; hour 2): 0
IL-12 levels, average ([2]; hour 6): 2181.5
IL-12 levels, test 1 ([2]; hour 6): 1993
IL-12 levels, test 2 ([2]; hour 6): 2370
IL-12 levels, average ([2]; hour 12): 2071
IL-12 levels, test 1 ([2]; hour 12): 1790
IL-12 levels, test 2 ([2]; hour 12): 2352
IL-12 levels, average ([2]; hour 24): 54
IL-12 levels, test 1 ([2]; hour 24): 30
IL-12 levels, test 2 ([2]; hour 24): 78
IL-12 levels, average ([2]; hour 48): 0
IL-12 levels, test 1 ([2]; hour 48): 0
IL-12 levels, test 2 ([2]; hour 48): 0
IL-12 levels, average ([2]; hour 72): 0
IL-12 levels, test 1 ([2]; hour 72): 0
IL-12 levels, test 2 ([2]; hour 72): 0
IL-12 levels, Total [2]: 4332
IL-4 level, average ([3]; hour 0): 27
IL-4 level, test 1 ([3]; hour 0): 27
IL-4 level, test 2 ([3]; hour 0): 27
IL-4 level, average ([3]; hour 2): 431.5
IL-4 level, test 1 ([3]; hour 2): 358
IL-4 level, test 2 ([3]; hour 2): 505
IL-4 level, average ([3]; hour 6): 95.5
IL-4 level, test 1 ([3]; hour 6): 85
IL-4 level, test 2 ([3]; hour 6): 106
IL-4 level, average ([3]; hour 12): 51
IL-4 level, test 1 ([3]; hour 12): 52
IL-4 level, test 2 ([3]; hour 12): 50
IL-4 level, average ([3]; hour 24): 41.5
IL-4 level, test 1 ([3]; hour 24): 40
IL-4 level, test 2 ([3]; hour 24): 43
IL-4 level, average ([3]; hour 48): 44
IL-4 level, test 1 ([3]; hour 48): 46
IL-4 level, test 2 ([3]; hour 48): 42
IL-4 level, average ([3]; hour 72): 4
IL-4 level, test 1 ([3]; hour 72): 4
IL-4 level, test 2 ([3]; hour 72): 4
IL-4 level, Total [3]: 696
IL-4 level, average ([4]; hour 0): 46
IL-4 level, test 1 ([4]; hour 0): 46
IL-4 level, test 2 ([4]; hour 0): 46
IL-4 level, average ([4]; hour 2): 1088
IL-4 level, test 1 ([4]; hour 2): 914
IL-4 level, test 2 ([4]; hour 2): 1262
IL-4 level, average ([4]; hour 6): 109
IL-4 level, test 1 ([4]; hour 6): 90
IL-4 level, test 2 ([4]; hour 6): 128
IL-4 level, average ([4]; hour 12): 55
IL-4 level, test 1 ([4]; hour 12): 44
IL-4 level, test 2 ([4]; hour 12): 66
IL-4 level, average ([4]; hour 24): 56.5
IL-4 level, test 1 ([4]; hour 24): 57
IL-4 level, test 2 ([4]; hour 24): 56
IL-4 level, average ([4]; hour 48): 44
IL-4 level, test 1 ([4]; hour 48): 47
IL-4 level, test 2 ([4]; hour 48): 41
IL-4 level, average ([4]; hour 72): 88
IL-4 level, test 1 ([4]; hour 72): 61
IL-4 level, test 2 ([4]; hour 72): 115
IL-4 level, Total [4]: 1487

CCCCCCCCCCCCCCCCCCCCCCCCCCCCC(=O)N[C@@H](/C=C/[C@H]1O[C@H](CO)[C@H](O)[C@H](O)[C@H]1O)[C@H](O)[C@H](O)CCCCCCCCCCCCCC [A-2, (3S,4S,5R)-1-C-(α-D-galactopyranosyl)-3-(N-nonacosanoylamino)-4,5-nonadec-(1,2-E)-enediol]
IFN-γ/IL-4 (B6) [1]: 16
IFN-γ levels, average ([1]; hour 0): 31
IFN-γ levels, test 1 ([1]; hour 0): 31
IFN-γ levels, test 2 ([1]; hour 0): 31
IFN-γ levels, average ([1]; hour 2): 138.5
IFN-γ levels, test 1 ([1]; hour 2): 138
IFN-γ levels, test 2 ([1]; hour 2): 139
IFN-γ levels, average ([1]; hour 6): 944.5
IFN-γ levels, test 1 ([1]; hour 6): 955
IFN-γ levels, test 2 ([1]; hour 6): 934
IFN-γ levels, average ([1]; hour 12): 2932
IFN-γ levels, test 1 ([1]; hour 12): 2427
IFN-γ levels, test 2 ([1]; hour 12): 3437
IFN-γ levels, average ([1]; hour 24): 8415
IFN-γ levels, test 1 ([1]; hour 24): 7023
IFN-γ levels, test 2 ([1]; hour 24): 9807
IFN-γ levels, average ([1]; hour 48): 464
IFN-γ levels, test 1 ([1]; hour 48): 424
IFN-γ levels, test 2 ([1]; hour 48): 504
IFN-γ levels, average ([1]; hour 72): 100.5
IFN-γ levels, test 1 ([1]; hour 72): 87
IFN-γ levels, test 2 ([1]; hour 72): 114
IFN-γ levels, Total [1]: 13027
IL-12/IL-4 (B6) [2]: 4.8
IL-12 levels, average ([2]; hour 0): 5
IL-12 levels, test 1 ([2]; hour 0): 5
IL-12 levels, test 2 ([2]; hour 0): 5
IL-12 levels, average ([2]; hour 2): 161.5
IL-12 levels, test 1 ([2]; hour 2): 178
IL-12 levels, test 2 ([2]; hour 2): 145
IL-12 levels, average ([2]; hour 6): 1363.5
IL-12 levels, test 1 ([2]; hour 6): 1488
IL-12 levels, test 2 ([2]; hour 6): 1239
IL-12 levels, average ([2]; hour 12): 1818.5
IL-12 levels, test 1 ([2]; hour 12): 1692
IL-12 levels, test 2 ([2]; hour 12): 1945
IL-12 levels, average ([2]; hour 24): 323
IL-12 levels, test 1 ([2]; hour 24): 44
IL-12 levels, test 2 ([2]; hour 24): 602
IL-12 levels, average ([2]; hour 48): 250
IL-12 levels, test 1 ([2]; hour 48): 500
IL-12 levels, test 2 ([2]; hour 48): 0
IL-12 levels, average ([2]; hour 72): 45.5
IL-12 levels, test 1 ([2]; hour 72): 91
IL-12 levels, test 2 ([2]; hour 72): 0
IL-12 levels, Total [2]: 3969
IL-4 level, average ([3]; hour 0): 27
IL-4 level, test 1 ([3]; hour 0): 27
IL-4 level, test 2 ([3]; hour 0): 27
IL-4 level, average ([3]; hour 2): 330
IL-4 level, test 1 ([3]; hour 2): 263
IL-4 level, test 2 ([3]; hour 2): 397
IL-4 level, average ([3]; hour 6): 127
IL-4 level, test 1 ([3]; hour 6): 90
IL-4 level, test 2 ([3]; hour 6): 164
IL-4 level, average ([3]; hour 12): 49.5
IL-4 level, test 1 ([3]; hour 12): 48
IL-4 level, test 2 ([3]; hour 12): 51
IL-4 level, average ([3]; hour 24): 45.5
IL-4 level, test 1 ([3]; hour 24): 43
IL-4 level, test 2 ([3]; hour 24): 48
IL-4 level, average ([3]; hour 48): 40.5
IL-4 level, test 1 ([3]; hour 48): 42
IL-4 level, test 2 ([3]; hour 48): 39
IL-4 level, average ([3]; hour 72): 2
IL-4 level, test 1 ([3]; hour 72): 2
IL-4 level, test 2 ([3]; hour 72): 2
IL-4 level, Total [3]: 623
IL-4 level, average ([4]; hour 0): 46
IL-4 level, test 1 ([4]; hour 0): 46
IL-4 level, test 2 ([4]; hour 0): 46
IL-4 level, average ([4]; hour 2): 443
IL-4 level, test 1 ([4]; hour 2): 286
IL-4 level, test 2 ([4]; hour 2): 600
IL-4 level, average ([4]; hour 6): 110
IL-4 level, test 1 ([4]; hour 6): 95
IL-4 level, test 2 ([4]; hour 6): 125
IL-4 level, average ([4]; hour 12): 56.5
IL-4 level, test 1 ([4]; hour 12): 45
IL-4 level, test 2 ([4]; hour 12): 68
IL-4 level, average ([4]; hour 24): 52
IL-4 level, test 1 ([4]; hour 24): 46
IL-4 level, test 2 ([4]; hour 24): 58
IL-4 level, average ([4]; hour 48): 56
IL-4 level, test 1 ([4]; hour 48): 60
IL-4 level, test 2 ([4]; hour 48): 52
IL-4 level, average ([4]; hour 72): 61.5
IL-4 level, test 1 ([4]; hour 72): 59
IL-4 level, test 2 ([4]; hour 72): 64
IL-4 level, Total [4]: 826
